Laboratory results reported in patent US20030199590A1, “Prostaglandin analogues for promotion of hair growth” (priority 2002, published 2003).
Where two headings read alike, the source gives them in different places.

Legend:
FP receptors = molecular target: T1, FP receptors (Bos taurus, UniProt P37289); assay: FP receptor binding assay ([3H]PGF2α, bovine corpus luteum membranes); details: for Ki: Table 2, FP receptor binding
T1 construct: Washed total particulate bovine corpus luteum membranes; from tissue; host or cells: bovine corpus luteum membranes
T1 sequence (P37289 whole entry): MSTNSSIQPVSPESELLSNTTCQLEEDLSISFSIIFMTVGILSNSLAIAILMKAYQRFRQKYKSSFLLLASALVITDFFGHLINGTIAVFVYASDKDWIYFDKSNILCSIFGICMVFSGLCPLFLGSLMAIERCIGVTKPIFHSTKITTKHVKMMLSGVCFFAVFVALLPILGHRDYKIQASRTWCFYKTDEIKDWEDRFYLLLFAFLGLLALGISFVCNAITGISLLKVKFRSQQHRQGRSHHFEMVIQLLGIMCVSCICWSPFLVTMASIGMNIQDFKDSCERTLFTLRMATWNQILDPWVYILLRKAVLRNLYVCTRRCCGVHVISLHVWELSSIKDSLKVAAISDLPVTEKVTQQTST
Description: Non-specific binding was defined with 1-10 μM unlabeled PGF2α or fluprostenol. The assays were terminated by vacuum filtration (using Whatman GF/B glass fiber filter previously soaked in 0.3% polyethyleneimine) and the data analyzed by a non-linear, iterative, curve-fitting computer program.

[1] = molecular target: T2, FP receptors (Swiss 3T3 cells expressing FP receptors) (Mus musculus, UniProt P43117); assay: FP receptor-mediated phosphoinositide turnover assay; assay type: cell-based; details: for EC50: [3H]-IPs in Swiss 3T3 cells; for % response: efficacy relative to standard
T2 construct: endogenous in cells; host or cells: Swiss 3T3 cells
T2 sequence (P43117 whole entry): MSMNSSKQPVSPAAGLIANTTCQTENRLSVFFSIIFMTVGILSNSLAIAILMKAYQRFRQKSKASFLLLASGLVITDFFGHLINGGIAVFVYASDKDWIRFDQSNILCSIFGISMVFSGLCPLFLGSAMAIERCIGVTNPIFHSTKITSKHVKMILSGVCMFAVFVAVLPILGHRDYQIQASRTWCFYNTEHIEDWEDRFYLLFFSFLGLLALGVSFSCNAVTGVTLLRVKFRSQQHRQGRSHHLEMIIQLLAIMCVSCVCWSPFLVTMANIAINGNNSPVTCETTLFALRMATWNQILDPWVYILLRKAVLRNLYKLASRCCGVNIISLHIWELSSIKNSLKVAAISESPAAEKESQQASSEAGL
Description: FP receptor-mediated phosphoinositide turnover assay: [^3H]Inositol phosphates ([^3H]-IPs) produced by agonist-mediated activation of phospholipase C in Swiss 3T3 cells expressing FP receptors were quantified as follows. Confluent 3T3 cells were exposed to 1.0-1.5 μCi [^3H]-myo-inositol (18.3 Ci/mmol) in 0.5 ml DMEM for 24-30 hours at 37° C. Then cells were rinsed once with DMEM/F-12 containing 10 mM LiCl, and the agonist stimulation experiment was performed in 0.5 ml of the same medium to facilitate accumulation of [^3H]-IPs. Cells were exposed to the agonist or solvent for 60 min at 37° C. (triplicate determinations), followed by aspiration of the medium and immediate addition of 1 ml of ice-cold 0.1 M formic acid. The plates were kept cold and then frozen. Samples frozen up to one week were thawed prior to chromatographic separation of radiolabeled components. The cell lysates (0.9 ml) were loaded on columns packed with approximately 1 ml AG 1-X8 anion exchange resin. The elution procedure consisted of a wash with 10 ml of H2O, then 8 ml of 50 mM ammonium formate, and finally 4 ml of 1.2 M ammonium formate with 0.1 M formic acid, which was collected in a scintillation vial. To this eluate was added 15 ml of scintillation fluid and the total [^3H]-IPs determined by scintillation counting on a beta-counter. Data were analyzed by the sigmoidal fit function of the Origin Scientific Graphics software (Microcal Software, Northampton, Mass.) to determine agonist potency (EC50 value) and efficacy, relative to the standard cloprostenol.

eyelash [2] = assay: Eyelash change from baseline evaluated by photographs in clinical studies; assay type: in vivo, patients; details: for Percent of Patients with Eyelash Change: Table 3; for Percent of Patients with Eyelash Change: Change Reported / Percent of Patients with Eyelash Change: Color Change / Percent of Patients with Eyelash Change: Density Change / Percent of Patients with Eyelash Change: Length Change / Percent of Patients with Eyelash Change: Thickness Change: Table 4; for change in eyelash color, length, density and/or thickness (in words): Travoprost 0.0015% and 0.004%, latanoprost 0.005% compared to travoprost
Description: Eyelash photographs of each eye were taken at determination of patient eligibility […] (baseline) and Months 1.5, 3, 4.5 and 6 in four clinical studies. Additional photographs were taken at Months 9 and 12 in two clinical studies. Eyelash change was classified using the following categories: change in eyelash color, increase in eyelash length, increase in eyelash density and increase in eyelash thickness. Two independent readers evaluated the photographs subjectively for any change from baseline in eyelash characteristics.

eyelash [3] = details: in some instances, U.S. Pat. No. 6,262,105; cited from earlier work

Row | Compound | Ki (FP receptors) | EC50 ([1]; Table 2, read-out: EC50) | % response ([1]; Table 2) | also measured
1 | O=C(O)CCC/C=C\C[C@@H]1[C@@H](/C=C/[C@H](F)COc2cccc(C(F)(F)F)c2)[C@H](O)C[C@@H]1O [Compound 76] | – | – | – | IC50 (FP receptors; Table 1, [3H]PGF2α, bovine corpus luteum membranes, free acid form): 4.2 µM; Emax ([1]; Swiss-3T3, 1 h, Table 1, efficacy relative to standard full agonist (100%), read-out: FP functional (%) agonistic activity): 44.5%; EC50 ([1]; Table 1, read-out: FP functional EC50): 131 nM
2 | O=C(O)CCC/C=C\C[C@@H]1[C@@H](/C=C/[C@@H](O)COc2cccc(Cl)c2)[C@H](O)C[C@@H]1O [Compound 81] | 91 nM | 1.4 nM | 100% | –
3 | O=C(O)CCC/C=C\C[C@@H]1[C@@H](/C=C/[C@@H](O)COc2cccc(C(F)(F)F)c2)[C@H](O)C[C@@H]1O [Compound 82] | 35 nM | 3.8 nM | 96% | –
4 | O=C(O)CCC/C=C\C[C@@H]1[C@@H](CC[C@@H](O)COc2cccc(Cl)c2)[C@H](O)C[C@@H]1O [Compound 83] | 50 nM | 4 nM | 100% | –
5 | O=C(O)CCC/C=C\C[C@@H]1[C@@H](CC[C@H](O)COc2cccc(Cl)c2)[C@H](O)C[C@@H]1O [Compound 84] | 130 nM | 210 nM | 76% | –
6 | O=C(O)CCCCCC[C@@H]1[C@@H](CC[C@@H](O)COc2cccc(Cl)c2)[C@H](O)C[C@@H]1O [Compound 85] | 220 nM | 23 nM | 100% | –
7 | O=C(O)CCCCCC[C@@H]1[C@@H](/C=C/[C@@H](O)COc2cccc(Cl)c2)[C@H](O)C[C@@H]1O [Compound 86] | 93 nM | 4.92 nM | 100% | –
8 | O=C(O)CCCCCC[C@@H]1[C@@H](/C=C/[C@H](O)COc2cccc(Cl)c2)[C@H](O)C[C@@H]1O [Compound 87] | 730 nM | 38 nM | 88% | –
9 | O=C(O)CCC/C=C\C[C@@H]1[C@@H](/C=C/[C@H](O)COc2cccc(C(F)(F)F)c2)[C@H](O)C[C@@H]1O [Compound 88] | 150 nM | 11.6 nM | 99% | –
10 | O=C(O)CCC/C=C/C[C@@H]1[C@@H](/C=C/[C@@H](O)COc2cccc(C(F)(F)F)c2)[C@H](O)C[C@@H]1O [Compound 89] | 260 nM | 41 nM | 96% | –
11 | CC(C)OC(=O)CCC/C=C\C[C@@H]1[C@@H](CC[C@@H](O)CCc2ccccc2)[C@H](O)C[C@@H]1O [Latanoprost] | – | – | – | Percent of Patients with Eyelash Change (eyelash [2]; 0.005%): 25.8%; Percent of Patients with Eyelash Change: Change Reported (eyelash [2]; 0.005%): 25.8%; Percent of Patients with Eyelash Change: Color Change (eyelash [2]; 0.005%): 16.5%; Percent of Patients with Eyelash Change: Density Change (eyelash [2]; 0.005%): 22.2%; Percent of Patients with Eyelash Change: Length Change (eyelash [2]; 0.005%): 25.8%; Percent of Patients with Eyelash Change: Thickness Change (eyelash [2]; 0.005%): 17.5%; change in eyelash color, length, density and/or thickness (in words) (eyelash [2]): greatly reduced frequency; eyelash growth in glaucoma patients (in words) (eyelash [3]): increased eyelash growth
12 | CC(C)OC(=O)CCC/C=C\C[C@@H]1[C@@H](/C=C/[C@@H](O)COc2cccc(C(F)(F)F)c2)[C@H](O)C[C@@H]1O [Travoprost] | – | – | – | Percent of Patients with Eyelash Change (eyelash [2]; 0.0015%): 48.1%; Percent of Patients with Eyelash Change (eyelash [2]; 0.004%): 61.3%; Percent of Patients with Eyelash Change: Change Reported (eyelash [2]; 0.0015%): 48.1%; Percent of Patients with Eyelash Change: Color Change (eyelash [2]; 0.0015%): 37.3%; Percent of Patients with Eyelash Change: Density Change (eyelash [2]; 0.0015%): 44.6%; Percent of Patients with Eyelash Change: Length Change (eyelash [2]; 0.0015%): 48.1%; Percent of Patients with Eyelash Change: Thickness Change (eyelash [2]; 0.0015%): 33.8%; Percent of Patients with Eyelash Change: Change Reported (eyelash [2]; 0.004%): 61.3%; Percent of Patients with Eyelash Change: Color Change (eyelash [2]; 0.004%): 47.9%; Percent of Patients with Eyelash Change: Density Change (eyelash [2]; 0.004%): 58.2%; Percent of Patients with Eyelash Change: Length Change (eyelash [2]; 0.004%): 61.1%; Percent of Patients with Eyelash Change: Thickness Change (eyelash [2]; 0.004%): 51.1%; change in eyelash color, length, density and/or thickness (in words) (eyelash [2]): concentration-related change
